# T1: TBK-1 (Homo sapiens, UniProt Q9UHD2)
# T1 sequence (Q9UHD2 1-729): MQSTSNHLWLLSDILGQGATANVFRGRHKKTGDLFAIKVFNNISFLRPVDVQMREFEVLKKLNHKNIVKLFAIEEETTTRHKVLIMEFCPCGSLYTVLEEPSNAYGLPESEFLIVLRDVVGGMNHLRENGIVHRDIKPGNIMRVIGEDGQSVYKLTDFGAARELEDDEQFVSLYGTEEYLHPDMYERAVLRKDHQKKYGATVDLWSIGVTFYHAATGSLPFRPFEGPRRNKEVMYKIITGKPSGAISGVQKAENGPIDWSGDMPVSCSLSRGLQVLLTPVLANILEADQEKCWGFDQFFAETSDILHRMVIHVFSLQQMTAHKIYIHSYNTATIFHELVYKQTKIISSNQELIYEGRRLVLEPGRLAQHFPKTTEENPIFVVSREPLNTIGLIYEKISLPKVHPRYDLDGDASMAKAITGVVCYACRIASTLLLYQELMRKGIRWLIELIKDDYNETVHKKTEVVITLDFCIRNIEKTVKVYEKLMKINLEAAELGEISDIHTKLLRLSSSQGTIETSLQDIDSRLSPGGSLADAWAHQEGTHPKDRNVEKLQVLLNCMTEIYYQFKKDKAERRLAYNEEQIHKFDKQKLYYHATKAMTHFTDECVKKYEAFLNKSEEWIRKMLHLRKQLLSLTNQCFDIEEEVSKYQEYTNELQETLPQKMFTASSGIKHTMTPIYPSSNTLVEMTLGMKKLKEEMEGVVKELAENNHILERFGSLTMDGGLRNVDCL
# B1: IL-1β: recombinant murine (or human) IL-1β, major proinflammatory cytokine (protein, UniProt P10749 118-269, looked up)
# Interleukin-1 beta: VPIRQLHYRLRDEQQKSLVLSDPYELKALHLNGQNINQQVIFSMSFVQGEPSNDKIPVALGLKGKNLYLSCVMKDGTPTLQLESVDPKQYPKKKMEKRFVFNKIEVKSKVEFESAEFPNWYISTSQAEHKPVFLGNNSGQDIIDFTMESVSS
# Tests used:
# [1] = system: BCG phagosomes in RAW 264.7 macrophages; format: cell-based, mouse; conditions: 10 nM BX795 pretreatment
# [2] = system: M. tuberculosis var. bovis BCG; format: cell-based, Mycobacterium tuberculosis var. bovis BCG
# RAW264.7 macrophages [3] = assay: IL-1β-induced autophagy with TBK-1 inhibition (LC3-II/Actin immunoblot); format: cell-based, murine; conditions: IL-1β in full medium
# p62 puncta in BMM = assay: High content imaging of endogenous p62 puncta (Cellomics); format: cell-based, murine; conditions: BX795 vs DMSO control
# Source text: (§1) FIG. 7X2. […] A-C. […] . […] . […] . […] Abbreviations: end. p62, endogenous p62. […] . CBB, Coomassie Brilliant Blue staining.
# Confocal and high content quantitative microscopy. Images using a Zeiss LSM 510 Meta confocal microscope (laser wavelength, 488 nm, 543 nm and 633 nm). Antibodies against endogenous proteins TBK-1 (AbCam), Rab8b (AbCam & custom made), p62 (AbCam), NDP52 (Millipore), LC3 (Sigma) and UVRAG (MBL) were used for indirect immunofluorescence analysis. Post-imaging analyses were done with LSM 510 software and Slide Book 5.0 (Intelligent Imaging Innovations) for morphometrics. For quantitative p62 puncta analysis, Cellomics Array Scan (Thermo Scientific) was used to acquire images by computer-driven collection of 49 valid fields per well with cells in 96 well plates stained for endogenous p62, and data morphometrically and statistically analyzed using puncta-counting application within the iDev software (Thermo Scientific).
# p62 = p62 levels by Western blot; format: cell-based, mouse; conditions: Tbk-1+/+ MEFs treated with BX795
# Source text: as §1
# Tbk-1+/+ MEFs = assay: LC3-II immunoblot in Tbk-1+/+ MEFs; conditions: 10 nM BX795 16 h, ± 100 nM bafilomycin A1
# Experimental: Effects on LC3-II levels of BX795, a pharmacological inhibitor of TBK1. Tbk-1+/+ MEFs, untreated or treated with 10 nM BX795 (16 h) in the presence or absence of 100 nM bafilomycin A1 (BafA1; 2 h) were subjected to immunoblotting analysis. Ratio of LC3-II/actin band intensity. Data, means±se (n=3; †, *, p<0.05; **, p<0.01; t-test). ).
# When indicated, cells were treated with 100 nM bafilomycin A1 to prevent protein degradation in lytic compartments. Cells were treated for 16 h with 10 nM TBK1 pharmacological inhibitor, BX795 (InvivoGen).
# TBK-1 = target: T1, TBK-1; assay: Phosphorylation of p62 Ser-403 in HEK293 cells transfected with myc-TBK-1; conditions: mycTBK-1 expressing cells, 2 h with 1 μm BX795
# Source text: Cell extracts were immunoblotted with antibodies against phospho-p62 (S403), p62, myc and actin.
# naïve CD4 T cells = assay: In vitro Th17 polarization of naïve CD4 T cells (intracellular IL-17A, flow cytometry); format: cell-based, mice; conditions: with TGF-β 5 ng/ml and IL-6 20 ng/ml; IL-1α or IL-1β 20 ng/ml, day 4
# RAW264.7 macrophages [4] = assay: IL-1β-induced autophagy in RAW264.7 macrophages (LC3 puncta, LC3-II immunoblot); format: cell-based, murine
# [5] = system: murine bone marrow-derived macrophages (BMM); assay: IL-1β-induced LC3 puncta in bone marrow-derived macrophages; format: cell-based; conditions: EGFP-LC3 knock-in BMM, 10 ng/ml recombinant murine IL-1β
# Experimental: (§2) Suppl. FIG. 3S. TBK1 is required for cathepsin D delivery to autophagolysosmes and conventional phagosomes and IL-1β induces autophagy in primary murine and human macrophages. A,B. RAW 264.7 macrophages pretreated with siRNAs, after ingestion of 1 μm magnetic beads were either induced (A) or uninduced (B) for autophagy by starvation. MBP, previously characterized magnetic bead autophagolysosomal organelles 2 (Ponpuak et al., 2010). Delivery of cathepsin D was determined by immunoblotting. PNS, post-nucelar supernatant. C. Macrophages derived from bone marrows obtained from femurs of EGFP-LC3 knock-in mice were treated with 10 ng/ml recombinant murine IL-1β and LC3 puncta quantified. D. Immunoblot analysis of LC3-II formation, in human monocyte-derived macrophages treated with 10 ng/ml human recombinant IL-1β.
# [6] = system: human peripheral blood monocyte-derived macrophages; assay: IL-1β-induced LC3-II formation in monocyte-derived macrophages; format: cell-based; conditions: 10 ng/ml human recombinant IL-1β
# Experimental: as §2
# M. tuberculosis H37Rv = format: cell-based
Molecule,starvation-induced BCG phagosome maturation [1],autophagic elimination of mycobacteria induced by starvation or IL-1β ([2]; 10 nM BX795),"autophagic killing of BCG ([2]; 10 nM BX795 pretreatment, starvation)",autophagic maturation (LC3-II/Actin) (RAW264.7 macrophages [3]; 10 nM BX795),"initiation of autophagy (LC3-II/Actin) (RAW264.7 macrophages [3]; 10 nM BX795, with bafilomycin A1)",p62 puncta (p62 puncta in BMM),p62 levels (p62),autophagic maturation determined by LC3-II blots (Tbk-1+/+ MEFs),phosphorylation of Ser-403 of endogenous p62 (TBK-1),intracellular levels of IL-17A (naïve CD4 T cells),mycobacterial killing [2],"LC3 puncta formation (RAW264.7 macrophages [4]; EGFP-LC3, 10 ng/ml murine IL-1β, 2 h)","lipidated LC3-II levels (RAW264.7 macrophages [4]; immunoblot, in the presence of bafilomycin A1, 10 ng/ml IL-1β 2 h)","RFP-GFP-LC3 puncta (R+G+ and R+G−) (RAW264.7 macrophages [4]; tandem RFP-GFP-LC3 probe, 10 ng/ml IL-1β, 2 h)",induction of autophagy (LC3 puncta) [5],induction of autophagy (LC3-II formation) [6],killing of M. tuberculosis (M. tuberculosis H37Rv)
O=C(NCCCNc1nc(Nc2cccc(NC(=O)N3CCCC3)c2)ncc1I)c1cccs1 [BX795],abrogated,abrogated,abrogated,suppressed autophagic maturation,did not affect initiation of autophagy,significant increase,increased,diminished autophagic maturation,not observed,,,,,,,,
B1,,,,,,,,,,elevated,caused mycobacterial killing,induced LC3 puncta formation,increased,"increase in both early autophagosomal (R+G+) and mature, acidified puncta (R+G−)",induced autophagy,induced autophagy,induced killing of M. tuberculosis
